Where “and” joins values, the source holds several entries; their conditions need not be identical. Equal values may be shown once.
How the values were obtained:
[1] = test system: complement serum (guinea pig complement); test: Anti-complement activity: 50% inhibition of hemolysis of sensitized erythrocytes; assay type: cell-based; conditions: 37° C., 60 minutes, guinea pig complement diluted 150 times; for IC50: Cavia porcellus, Erythrocyte, 1 h, OD413, read-out: Anti-Complement Activity Value (50% hemolysis inhibitory activity value)
Protocol: The anti-complement activity was measured and confirmed by the testing method described in Meneki Kagaku (Immuno-Chemistry), Yuichi Yamamura et al., Ed. pages 830-834, Asakura Shoten, Tokyo, Japan (1973). Specifically,a test tube was charged with 0.5 ml of an aqueous dispersion of each of the test compounds, 0.5 ml of sensitized erythrocytes (EA) containing 1×10^8 cells/ml, 1 ml of a 5-fold diluted solution of a Veronal buffer solution containing gelatin, Ca^++ and Mg^++ (GVB^++), and 0.5 ml of complement serum (guinea pig complement) diluted to 150 times with the GVB^++. The mixture was maintained hot at 37° C. for 60 minutes. Then, 5 ml of an ice-cold physiological saline solution was added thereto, and the mixture was centrifuged. […] The 50% hemolysis inhibitory activity value (γ/ml) measured by the above method is shown in Table 2 below for each test compound.

[2] = test system: Nephrotoxin-Type Nephritis; test: Therapeutic effect on nephrotoxin-type nephritis (proteinuria); assay type: in vivo, male Wistar rats; conditions: for inhibition of the primary reaction of nephrotoxin-type nephritis: same test as Table 3; for amount of proteinurea, Average: average of 3 replications; for amount of proteinurea, Average / amount of proteinurea: 5 mg per rat i.p. once daily, 7 days; for amount of proteinurea: individual replication
Description: Rat nephrotoxin ("NT" for brevity) was obtained as described below. Rat kidney cortex was homogenized with an equal quantity of physiological saline. The homogenized mixture was mixed with Freund's complete adjuvant (a product of Difco Company) in a volume ratio of 1:1. Two milliliters of the resulting mixture was intramuscularly injected into a rabbit (body weight 3,100 g) to immunize the rabbit. A month and a half later, blood was taken from the heart of the rabbit and serum was obtained. The resulting serum was inactivated at 56° C. for 30 minutes, then salted out with a 40% saturated aqueous solution of ammonium sulfate, and fractionated. The γ-globulin (IgG) fraction was collected to obtain NT.
The evaluation was carried out using male Wistar rats with a body weight of 150 to 160 g with three replications for each test compound. The test compound was intraperitoneally administered once every 24 hours for seven days. One hour after the administration of the test compound on the third day, the NT was applied. The NT was intravenously injected in an amount of 1 ml at a tail vein of each rat. Chlorophyllin (CP) was used as a comparison compound, and physiological saline solution was used as a control.
The proteinuria level (total amount excreted into the urine over a 24 hour period) was measured using turbidometry employing bovine serum albumin as a control by means of sulfosalicylic acid.

Heymann-type Nephritis = test: Therapeutic effects on Heymann-type nephritis (proteinuria); assay type: in vivo, male Wistar rats; conditions: for activity of curing Heymann-type nephritis: test of Table 4, result in words; for amount of proteinurea, Average: average of 3 replications; for amount of proteinurea: individual replication
Protocol: Male Wistar rats with a body weight of 180 to 200 g were used in the test. Rat kidney cortex was extracted, and homogenized with an equal quantity by volume of a physiological saline solution. The homogenate was centrifuged at 1500 G for 1 hour. The supernatant liquid was purified in accordance with the method of T. S. […] The resulting mixture was injected intraperitoneally into isologous rats in an amount of 0.5 ml per rat. […] (This period was about 6 to 8 weeks.) […] CP was used as a comparison compound, and physiological saline solution was used as a control. Three replications were conducted for each test compound.

[3] = Acute toxicity on intravenous administration to mice; conditions: mouse, in vivo
[4] = Before Administration, group of 5 mg per rat i.p.
[5] = Day 1, 5 mg per rat i.p. once a day, 7 days
[6] = Day 4, 5 mg per rat i.p. once a day, 7 days
[7] = Day 7, 5 mg per rat i.p. once a day, 7 days
[8] = Day 14, 5 mg per rat i.p. once a day, 7 days
[9] = Day 21, 5 mg per rat i.p. once a day, 7 days

In the case of `COc1cc(CO)c(CO)c2c1CC1(O2)C(C)CCC2C(C)(C)C(O)C(O)CC21C` (centres unmarked) [(12), 6,7-Dihydroxy-2,5,5,8a-tetramethyl-1,2,3,4,4a,5,6,7,8,8a-decahydronaphthalene-1-spiro-2'-(6',7'-dihydroxymethyl-4'-methoxy-2',3'-dihydrobenzofuran)], the IC50 [1] is reported as 250 µg/mL, the “inhibition of the primary reaction of nephrotoxin-type nephritis” value (“inhibition” below) ([2]; result in words) is reported as “found to inhibit the primary reaction” and the “activity of curing Heymann-type nephritis” value (Heymann-type Nephritis) is reported as “a substantial activity of curing Heymann-type nephritis”.

In the case of `CC1CCC2C(C)(C)C(O)C(O)CC2(C)C12Cc1c(O)cc(CO)c(CO)c1O2` (centres unmarked) [(11), 6,7-Dihydroxy-2,5,5,8a-tetramethyl-1,2,3,4,4a,5,6,7,8,8a-decahydronaphthalene-1-spiro-2'-(6',7'-dihydroxymethyl-4'-hydroxy-2',3'-dihydrobenzofuran)], the IC50 [1] is reported as 500 µg/mL, the “inhibition” value ([2]; result in words) is reported as “found to inhibit the primary reaction” and the “activity of curing Heymann-type nephritis” value (Heymann-type Nephritis) is reported as “a substantial activity of curing Heymann-type nephritis”.

For `CC1CCC2C(C)(C)C3OC(C)(C)OC3CC2(C)C12Cc1c(O)cc3c(c1O2)C(=O)OC3` (centres unmarked) [Compound No. (62), 4-Hydroxy-8-oxo-2,3,6,8-tetrahydro-furo[3,4-g]benzofuran-2-spiro-1'-(6',7'-isopropylidenedioxy-2',5',5',8'a-tetramethyl-1',2',3',4',4'a,5',6',7',8',8'a-decahydronaphthalene)], the IC50 [1] was 450 µg/mL, the “inhibition” value ([2]; result in words) was “found to inhibit the primary reaction” and the “activity of curing Heymann-type nephritis” value (Heymann-type Nephritis) was “a substantial activity of curing Heymann-type nephritis”.

For `CCOC(=O)C(C#N)=Cc1cc(O)c2c(c1C=C(C#N)C(=O)OCC)OC1(C2)C(C)CCC2C(C)(C)C(O)C(O)CC21C` (centres unmarked) [(4), 6,7-Dihydroxy-2,5,5,8a-tetramethyl-1,2,3,4,4a,5,6,7,8,8a-decahydronaphthalene-1-spiro-2'-[6',7'-di-(2-cyano-2-ethoxycarbonylvinyl)-4'-hydroxy-2',3'-dihydrobenzofuran]], the IC50 [1] was 80 µg/mL and the LD50 [3] was 200 mg/kg.

With `CC1CCC2C(C)(C)C(O)C(O)CC2(C)C12Cc1c(O)cc(C=CC(=O)O)c(C=CC(=O)O)c1O2` (centres unmarked) [(7), 6,7-Dihydroxy-2,5,5,8a-tetramethyl-1,2,3,4,4a,5,6,7,8,8a-decahydronaphthalene-1-spiro-2'-[6',7'-di-(2-carboxyvinyl)-4'-hydroxy-2',3'-dihydrobenzofuran]] the IC50 [1] was 80 µg/mL, the LD50 [3] was 150 mg/kg and the “inhibition” value ([2]; result in words) was “found to inhibit the primary reaction”. For the same compound, the “activity of curing Heymann-type nephritis” value (Heymann-type Nephritis) was “a substantial activity of curing Heymann-type nephritis”.

In the case of `CC1CCC2C(C)(C)C(O)C(O)CC2(C)C12Cc1c(O)cc(O)c(O)c1O2` (centres unmarked) [(2), 6,7-Dihydroxy-2,5,5,8a-tetramethyl-1,2,3,4,4a,5,6,7,8,8a-decahydronaphthalene-1-spiro-2'-(4',6',7'-trihydroxy-2',3'-dihydrobenzofuran)], the IC50 [1] is reported as 80 µg/mL and the LD50 [3] is reported as 150 mg/kg.

`CC1CCC2C(C)(C)C(O)C(O)CC2(C)C12Cc1c(O)cc(C=C(C#N)C#N)c(C=C(C#N)C#N)c1O2` (centres unmarked) [(3), 6,7-Dihydroxy-2,5,5,8a-tetramethyl-1,2,3,4,4a,5,6,7,8,8a-decahydronaphthalene-1-spiro-2'-[6',7'-di-(2,2-dicyanovinyl)-4'-hydroxy-2',3'-dihydrobenzofuran]] gave an IC50 [1] of 40 µg/mL and an LD50 [3] of 200 mg/kg.

For `CC1CCC2C(C)(C)C(O)C(O)CC2(C)C12Cc1c(O)cc(CO)c(C(=O)O)c1O2` (centres unmarked) [(8), 6,7-Dihydroxy-2,5,5,8a-tetramethyl-1,2,3,4,4a,5,6,7,8,8a-decahydronaphthalene-1-spiro-2'-(7'-carboxy-6'-hydroxymethyl-4'-hydroxy-2',3'-dihydrobenzofuran)], the IC50 [1] was 125 µg/mL, the “inhibition” value ([2]; result in words) was “found to inhibit the primary reaction” and the “activity of curing Heymann-type nephritis” value (Heymann-type Nephritis) was “a substantial activity of curing Heymann-type nephritis”.

In the case of Chlorophyllin [reference compound], the “Anti-Complement Activity Value (50% hemolysis inhibitory activity value)” value ([1]; OD413) is reported as 40 µg/mL, the “amount of proteinurea, Average” value ([2]; Day 1) is reported as 3.4 mg/day and the amount of proteinurea ([2]; Day 1) is reported as 2.4 mg/day and 4.4 mg/day and 3.2 mg/day. For the same compound, the “amount of proteinurea, Average” value ([2]; Day 4) was 2.1 mg/day, the amount of proteinurea ([2]; Day 4) was 1.5 mg/day and 2.6 mg/day and 2.1 mg/day and the “amount of proteinurea, Average” value ([2]; Day 7) was 2.0 mg/day. For the same compound, the amount of proteinurea ([2]; Day 7) was 0.9 mg/day and 1.7 mg/day and 3.5 mg/day, the “amount of proteinurea, Average” value ([2]; Day 10) was 8 mg/day and the amount of proteinurea ([2]; Day 10) was 9 mg/day and 8 mg/day and 6 mg/day. For the same compound, the “amount of proteinurea compared with healthy rat” value ([2]; from administration of NT to 10 days after, result in words) was “substantially the same as that of a healthy rat”, the “amount of proteinurea, Average” value (Heymann-type Nephritis; [4]) was 123 mg/day and the amount of proteinurea (Heymann-type Nephritis; [4]) was 123 mg/day and 117 mg/day and 129 mg/day. The “amount of proteinurea, Average” value (Heymann-type Nephritis; [5]) was 115 mg/day, the amount of proteinurea (Heymann-type Nephritis; [5]) was 116 mg/day and 108 mg/day and 121 mg/day and the “amount of proteinurea, Average” value (Heymann-type Nephritis; [6]) was 62 mg/day. For the same compound, the amount of proteinurea (Heymann-type Nephritis; [6]) was 72 mg/day and 63 mg/day and 52 mg/day, the “amount of proteinurea, Average” value (Heymann-type Nephritis; [7]) was 28 mg/day and the amount of proteinurea (Heymann-type Nephritis; [7]) was 32 mg/day and 29 mg/day and 22 mg/day. For the same compound, the “amount of proteinurea, Average” value (Heymann-type Nephritis; [8]) was 14 mg/day, the amount of proteinurea (Heymann-type Nephritis; [8]) was 16 mg/day and 12 mg/day and 15 mg/day and the “amount of proteinurea, Average” value (Heymann-type Nephritis; [9]) was 10 mg/day. The amount of proteinurea (Heymann-type Nephritis; [9]) was 10 mg/day and 8 mg/day and 13 mg/day.

With `CC(=O)OCc1cc(OC(C)=O)c2c(c1COC(C)=O)OC1(C2)C(C)CCC2C(C)(C)C(OC(C)=O)C(OC(C)=O)CC21C` (centres unmarked) [Compound No. (25), 6,7-Diacetyloxy-2,5,5,8a-tetramethyl-1,2,3,4,4a,5,6,7,8,8a-decahydronaphthalene-1-spiro-2'-(6',7'-diacetyloxymethyl-4'-acetyloxy-2',3'-dihydrobenzofuran)] the IC50 [1] was 600 µg/mL, the “inhibition” value ([2]; result in words) was “found to inhibit the primary reaction” and the “activity of curing Heymann-type nephritis” value (Heymann-type Nephritis) was “a substantial activity of curing Heymann-type nephritis”.
